Results reported in patent publication US20200024278A1, “COMPOSITION COMPRISING ANTIBIOTIC COMPOUND AND AN HETEROCYCLIC COMPOUND AND THEIR USE IN PREVENTING OR TREATING BACTERIAL INFECTIONS” (MUTABILIS, priority 2016, published 2020).

Assays:
Experiment in all cases: MIC, broth microdilution (CLSI), substance alone or ATB combined with compound at 4 or 8 μg/mL
ECL P99 = format: cell-based, E. cloacae; details: ECL P99
In short: (§1)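 Growth inhibition endpoint, read visually after 16-20 h at 35° C in ambient air. Cation-adjusted Mueller-Hinton broth, inoculum 5·10^5 CFU/mL, CLSI M7-A7 protocol.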

PAE 105250 = format: cell-based, P. aeruginosa; details: PAE 105250
In short: as §1

PAE UFR48 = format: cell-based, P. aeruginosa; details: PAE UFR48
In short: as §1

PAE UFR90 = format: cell-based, P. aeruginosa; details: PAE UFR90
In short: as §1

SAU 29213 = format: cell-based, S. aureus; details: SAU 29213
In short: as §1

SPN 49619 = format: cell-based, S. pneumoniae; details: SPN 49619
In short: as §1

C[C@@H](O)[C@H]1C(=O)N2C(C(=O)O)=C(SCCN=CN)C[C@H]12 [IMI]
<=0.031 μg/mL: MIC ATB combined with Example 1 @8 μg/ml (PAE 105250; with Example 1 @8 μg/ml) | MIC ATB combined with Example 1 @8 μg/ml (PAE 105250; with Example 1 at 8 μg/ml) | MIC ATB combined with Example 1 @8 μg/ml (SAU 29213; with Example 1 @8 μg/ml) | MIC ATB combined with Example 1 @8 μg/ml (SAU 29213; with Example 1 at 8 μg/ml) | MIC ATB combined with Example 13 @8 μg/ml (SAU 29213; with Example 13 at 8 μg/ml) | MIC ATB combined with Example 1 @8 μg/ml (SPN 49619; with Example 1 @8 μg/ml) | MIC ATB combined with Example 1 @8 μg/ml (SPN 49619; with Example 1 at 8 μg/ml) | MIC ATB combined with Example 7 @8 μgml (SPN 49619; with Example 7 at 8 μg/ml) | MIC ATB combined with Example 11 @8 μg/ml (SPN 49619; with Example 11 at 8 μg/ml) | MIC ATB combined with Example 13 @8 μg/ml (SPN 49619; with Example 13 at 8 μg/ml)
4 µg/mL: MIC ATB combined with Example 16 @4 μg/ml (PAE UFR90; with Example 16 at 4 μg/ml)
0.25 µg/mL: MIC ATB combined with Example 7 @8 μgml (SAU 29213; with Example 7 at 8 μg/ml)
32 µg/mL: MIC ATB combined with Example 7 @8 μgml (PAE UFR90; with Example 7 at 8 μg/ml)
8 µg/mL: MIC ATB combined with Example 13 @8 μg/ml (PAE 105250; with Example 13 at 8 μg/ml) | MIC ATB alone (PAE UFR48; antibiotic alone) | MIC ATB combined with Example 9 @4 μg/ml (PAE UFR48; with Example 9 @4 μg/ml)
0.063 µg/mL: MIC ATB combined with Example 13 @8 μg/ml (ECL P99; with Example 13 at 8 μg/ml) | MIC ATB alone (SPN 49619; antibiotic alone)
0.016 µg/mL: MIC ATB alone (SAU 29213; antibiotic alone)
16 µg/mL: MIC ATB combined with Example 7 @8 μgml (PAE 105250; with Example 7 at 8 μg/ml) | MIC ATB combined with Example 9 @4 μg/ml (PAE UFR48; with Example 9 at 4 μg/ml) | MIC ATB combined with Example 13 @8 μg/ml (PAE UFR90; with Example 13 at 8 μg/ml)
>32 µg/mL: MIC ATB combined with Example 7 @8 μgml (PAE UFR48; with Example 7 at 8 μg/ml) | MIC ATB combined with Example 11 @8 μg/ml (PAE UFR48; with Example 11 at 8 μg/ml) | MIC ATB combined with Example 12 @8 μg/ml (PAE UFR48; with Example 12 at 8 μg/ml) | MIC ATB combined with Example 13 @8 μg/ml (PAE UFR48; with Example 13 at 8 μg/ml) | MIC ATB combined with Example 14 @8 μg/ml (PAE UFR48; with Example 14 at 8 μg/ml) | MIC ATB combined with Example 15 @4 μgml (PAE UFR48; with Example 15 at 4 μg/ml) | MIC ATB combined with Example 16 @4 μg/ml (PAE UFR48; with Example 16 at 4 μg/ml)
1 µg/mL: MIC ATB alone (PAE 105250; antibiotic alone) | MIC ATB combined with Example 9 @4 μg/ml (PAE 105250; with Example 9 @4 μg/ml) | MIC ATB combined with Example 9 @4 μg/ml (PAE 105250; with Example 9 at 4 μg/ml) | MIC ATB combined with Example 11 @8 μg/ml (PAE 105250; with Example 11 at 8 μg/ml) | MIC ATB combined with Example 9 @4 μg/ml (PAE UFR90; with Example 9 @4 μg/ml) | MIC ATB combined with Example 9 @4 μg/ml (PAE UFR90; with Example 9 at 4 μg/ml) | MIC ATB combined with Example 11 @8 μg/ml (PAE UFR90; with Example 11 at 8 μg/ml)
2 µg/mL: MIC ATB combined with Example 12 @8 μg/ml (PAE 105250; with Example 12 at 8 μg/ml) | MIC ATB combined with Example 14 @8 μg/ml (PAE 105250; with Example 14 at 8 μg/ml) | MIC ATB combined with Example 15 @4 μgml (PAE 105250; with Example 15 at 4 μg/ml) | MIC ATB combined with Example 16 @4 μg/ml (PAE 105250; with Example 16 at 4 μg/ml) | MIC ATB alone (PAE UFR90; antibiotic alone) | MIC ATB combined with Example 12 @8 μg/ml (PAE UFR90; with Example 12 at 8 μg/ml) | MIC ATB combined with Example 14 @8 μg/ml (PAE UFR90; with Example 14 at 8 μg/ml) | MIC ATB combined with Example 15 @4 μgml (PAE UFR90; with Example 15 at 4 μg/ml)
<0.031 µg/mL: MIC ATB combined with Example 11 @8 μg/ml (ECL P99; with Example 11 at 8 μg/ml) | MIC ATB combined with Example 12 @8 μg/ml (ECL P99; with Example 12 at 8 μg/ml) | MIC ATB combined with Example 14 @8 μg/ml (ECL P99; with Example 14 at 8 μg/ml) | MIC ATB combined with Example 15 @4 μgml (ECL P99; with Example 15 at 4 μg/ml) | MIC ATB combined with Example 16 @4 μg/ml (ECL P99; with Example 16 at 4 μg/ml) | MIC ATB combined with Example 1 @8 μg/ml (PAE UFR48; with Example 1 @8 μg/ml) | MIC ATB combined with Example 1 @8 μg/ml (PAE UFR48; with Example 1 at 8 μg/ml) | MIC ATB combined with Example 1 @8 μg/ml (PAE UFR90; with Example 1 @8 μg/ml) | MIC ATB combined with Example 1 @8 μg/ml (PAE UFR90; with Example 1 at 8 μg/ml) | MIC ATB combined with Example 9 @4 μg/ml (SAU 29213; with Example 9 @4 μg/ml) | MIC ATB combined with Example 9 @4 μg/ml (SAU 29213; with Example 9 at 4 μg/ml) | MIC ATB combined with Example 11 @8 μg/ml (SAU 29213; with Example 11 at 8 μg/ml) | MIC ATB combined with Example 12 @8 μg/ml (SAU 29213; with Example 12 at 8 μg/ml) | MIC ATB combined with Example 14 @8 μg/ml (SAU 29213; with Example 14 at 8 μg/ml) | MIC ATB combined with Example 15 @4 μgml (SAU 29213; with Example 15 at 4 μg/ml) | MIC ATB combined with Example 16 @4 μg/ml (SAU 29213; with Example 16 at 4 μg/ml) | MIC ATB combined with Example 9 @4 μg/ml (SPN 49619; with Example 9 @4 μg/ml) | MIC ATB combined with Example 9 @4 μg/ml (SPN 49619; with Example 9 at 4 μg/ml) | MIC ATB combined with Example 12 @8 μg/ml (SPN 49619; with Example 12 at 8 μg/ml) | MIC ATB combined with Example 14 @8 μg/ml (SPN 49619; with Example 14 at 8 μg/ml) | MIC ATB combined with Example 15 @4 μgml (SPN 49619; with Example 15 at 4 μg/ml) | MIC ATB combined with Example 16 @4 μg/ml (SPN 49619; with Example 16 at 4 μg/ml)
